# Reference: US20210353566A1, “THE USE OF CHOLINE SUPPLEMENTATION AS THERAPY FOR APOE4-RELATED DISORDERS” (Massachusetts Institute of Technology, priority 2020, published 2021)
# Tests used:
# APOE4 astrocytes [1] = experiment: Intracellular TAGs and their unsaturation extracted from iPSC-derived astrocytes; format: cell-based, human; conditions: CDP-choline 100 μM vs regular media
# Protocol: (§1) Right, quantification of the lipid droplet number per cell (n=4 experiments). […] Lipid were extracted from APOE3 and APOE4 iPSC-derived astrocytes grown in a regular media or the media supplemented with CDP-choline (100 μM). Data is represented as mean±SD, n=3 experiments.
# APOE4 astrocytes [2] = experiment: Lipid droplet number (LipidTox) in iPSC-derived APOE4 astrocytes in supplemented media; format: cell-based, human; conditions: for LD number per cell: APOE4 astrocytes, supplemented media (CDP-choline 100 μM) vs vehicle
# Protocol: as §1
# APOE4-expressing yeast = experiment: Growth rate of APOE4-expressing yeast in minimal CSM media; format: cell-based; conditions: ethanolamine 1 mM, choline chloride 1 mM, choline bitartrate 100 μg/ml, compared to APOE3 strain
# Source text: The data was normalized to the growth of untreated yeast strain expressing GFP (control). Data are represented as mean±SD, n=3. […] Data is represented as mean±SD, n=6 (Student's t-test, ns p>0.05; *** p≤0.001).
# In order to explore APOE4-mediated lipid dysregulation in an unbiased manner, yeast were built and interrogated that express APOE3 or APOE4 in to the secretory pathway.
# EFAD mice = system: EFAD mice
# Source text: FIGS. 7A-7C show graphs depicting mice weight over time. FIG. 7A depicts mice fed a high choline diet (3.4 g/kg choline chloride) and minimum recommended choline diet (0.7 g/kg choline chloride) for one month. FIG. 7B depicts mice fed a sub-recommended choline diet (0.1 g/kg choline chloride) compared to standard choline (1.1 g/kg choline chloride) for one month. FIG. 7C depicts mice fed a high choline diet (3.4 g/kg choline chloride) and minimum recommended choline diet (0.7 g/kg choline chloride) for three months.
# The “EFAD” APOE knock-in mouse were selected, where the endogenous Apoe locus is replaced with the human isoform of APOE2, APOE3, or APOE4 in 5×FAD mice, and where APOE isoform effects on disease progression have been documented (Tai et al, 2017). Custom chow containing the National Research Council (NRC) minimum, (0.7 g/kg choline chloride) and NRC maximum (3.4 g/kg choline chloride) was manufactured and fed these to EFAD mice for 4-12 weeks (˜84 days).
# APOE4 microglia = conditions: interferon gamma
# Source text: Data is represented as mean±SD, n=3-5 (ANOVA with multiple comparisons, * p≤0.05, ** p≤0.01).
# Many AD risk factors are expressed in microglia including APOE, which along with TREM2, coordinates the transition from homeostatic to disease-associated state (Kraseman et al, 2017; Keren-Shaul et al, 2017).
# APOE4 astrocytes [3] = experiment: Lipid droplet quantification (LipidTox) in iPSC-derived astrocytes treated with oleic acid; format: cell-based, human; conditions: oleic acid 20 μM vs vehicle
# Source text: (§2) FIG. 1A is a schematic depicting the use of isogenic astrocytes derived from patient-derived iPSCs and the lipidomic analysis. FIG. 1B is a heatmap showing the fold change (log 2) between APOE4/APOE4 and APOE3/APOE3 in abundance of phospholipids (˜150 lipid species, upper panel) and triglycerides (˜120 species, lower panel). FIG. 1C is a graph presenting a fold change difference of the number of unsaturated bonds in fatty acids attached to triglycerides (TAGs). […] Data is represented as mean±SD (Student's t-test, **** p≤0.0001). FIG. 1E is a fluorescent microscopy images of the APOE3/APOE3 and APOE4/APOE4 astrocytes stained with an anti-Perilipin 2 antibody. Right, quantification of the Perilipin-2 foci per cell (each point (n) is an average of four wells, n=4). Data is represented as mean±SD (Student's t-test, **** p≤0.0001). FIG. 1F is a quantification of lipid droplets in astrocytes treated with vehicle (control) or with oleic acid (20 μM) (n=4 experiments).
# (§3) APOE is expressed in several organs, with the highest expression in the liver, followed by the brain. In the brain, astrocytes and to some extent microglia are the major cell types that express APOE in the brain (Kim, Basak et al. 2009). It was hypothesized that APOE4-mediated lipid dysregulation contributes to its role as a disease risk factor. […]
# APOE3 astrocytes = experiment: as above; format: cell-based, human; conditions: oleic acid 20 μM vs vehicle
# Source text: as §2, §3
# [4] = chow 0.7 g/kg and 3.4 g/kg choline chloride, 4-12 weeks
# [5] = diets 0.1, 0.7, 1.1, 3.4 g/kg choline chloride, one or three months
smiles,measurement,setting,value
C[N+](C)(C)CCOP(=O)(O)OP(=O)([O-])OC[C@H]1O[C@@H](n2ccc(N)nc2=O)[C@H](O)[C@@H]1O [CDP-choline],intracellular TAG levels,APOE4 astrocytes [1],normalizes
same,unsaturation of TAGs (number of unsaturated bonds in fatty acids),APOE4 astrocytes [1],normalizes
same,LD number per cell,APOE4 astrocytes [2],"significant decrease in the LD number, down to the levels found in APOE3-expressing astrocytes"
C[N+](C)(C)CCO.O=C([O-])C(O)C(O)C(=O)O (stereo not shown) [choline bitartrate],growth of APOE4 yeast in supplemented media,APOE4-expressing yeast,sufficient to suppress the APOE4-associated growth defect
C[N+](C)(C)CCO.[Cl-] [choline chloride],general health,EFAD mice; [4],general health appeared normal
same,toxicity,EFAD mice; [4],no clear indication of toxicity
same,body condition or appetite,EFAD mice; [5],no significant defects
same,mice weight over time,EFAD mice; [5],gained appropriate weight
same,growth of APOE4 yeast in supplemented media,APOE4-expressing yeast,sufficient to suppress the APOE4-associated growth defect
same,LD number per cell,APOE4 astrocytes [2],"significant decrease in the LD number, down to the levels found in APOE3-expressing astrocytes"
same,"lipid droplet accumulation, dose dependence","APOE4 astrocytes [2]; choline chloride 1 μM, 10 μM, 100 μM in astrocyte media, extended culture 14 days",improves lipid droplet accumulation in a dose-dependent manner
same,"lipid droplet volume, APOE4 vs APOE3 microglia","APOE4 microglia; supplemented 65 μM Choline Chloride vs low 15 μM, extended culture",no difference is detected
same,IL-1b induction,APOE4 microglia; supplemented 250 μM Choline Chloride vs low 65 μM,rescued
NCCO [ethanolamine],growth of APOE4 yeast in supplemented media,APOE4-expressing yeast,did not influence growth
CCCCCCCC/C=C\CCCCCCCC(=O)O [oleic acid],lipid droplet accumulation,APOE4 astrocytes [3],~3 fold
same,increase of lipid droplet content,APOE3 astrocytes,~1.5 fold
